Test results: US12551418B2, “Cosmetic containing ultraviolet wavelength converting substance and medicinal agent” (Shiseido Company, Ltd., priority 2019, dated 2026)

Legend:
Human dermal fibroblasts [1] = assay: Restoration of cell activity decreased by UV irradiation (Example 3); format: cell-based; conditions: cells pre-irradiated 400 mJ/cm^2 without substance, then UV 0-200 mJ/cm^2 through 0.4% or 2% C-phycocyanin
Method: (§1) A cell sample was prepared as follows: • 1. Human dermal fibroblasts and human skin keratinocytes purchased from Kurabo Industries Ltd. were used. A cell suspension (1 mL) stored in liquid nitrogen was thawed in a water bath (37° C.) to an extent that small ice pellets remained, and then diluted with 9 mL of warm medium. • 2. The diluted suspension was mixed gently and then transferred to a T75 flask and incubated overnight at 37° C. • 3. The next day, the medium was replaced with 10 mL of fresh medium. • 4. The medium was replaced periodically (once every 2 days for fibroblasts and once every 2 to 3 days for keratinocytes) and cell proliferation was continued. Meanwhile, the cells were observed using a microscope, and it was confirmed that the cells grew in the correct form. • 5. After the cells reached about 80% confluence, the cells were passaged. The cells were passaged by washing the cells once with 10 mL of warm PBS, adding 5 mL of warm trypsin to a T75 flask, covering the bottom of the flask with a trypsin solution, followed by aspirating at room temperature for 1 minute. • 6. The flask was allowed to stand in an oven at 37° C. for (maximum) 2 minutes for fibroblasts and (maximum) 7 minutes for keratinocytes. The cells were observed using a microscope and confirmed to be small and oval. • 7. Thereafter, the side of the T75 flask was lightly tapped to release the cells. […]

Human dermal fibroblasts [2] = assay: Influence of C-phycocyanin concentration and UV intensity on cell activity (Example 2); format: cell-based; conditions: UV 0-100 mJ/cm^2
Method: as §1

C-phycocyanin
cell activity (relative fluorescence intensity, AlamarBlue) (Human dermal fibroblasts [1]): cell activity was recovered | cell activity (relative fluorescence intensity, AlamarBlue) (Human dermal fibroblasts [2]; 0.4% C-phycocyanin solution plate): the decrease in cell activity was inhibited | cell activity (relative fluorescence intensity, AlamarBlue) (Human dermal fibroblasts [2]; 2% C-phycocyanin solution plate, compared to no UV irradiation): the cell activity was even enhanced
